Counter-ions that a name gives are not always drawn. Starred links: 1 amine or outer side, 2 acyl side, 3 side chain; linkers in the order of their positions; H or OH if unused. Non-standard residues stand in square brackets, D forms with d. Residues, ends and D or L forms follow the SMILES beside them. Groups on a side chain read outwards from the residue. *: point of attachment. Ethylenediamine = C(CN[*:2])N[*:1]; Hyp = O=C(O)[C@@H]1C[C@@H](O)CN1; Phg = N[C@H](C(=O)O)c1ccccc1; CO = O=C([*:1])[*:2]; Bn = c1ccc(C*)cc1
Legend:
[1] = In vivo pharmacokinetics after IV injection in cannulated rats; conditions: Sprague Dawley, rat, plasma, 56 mg/kg conjugate
Method: PK assays on the conjugates of Example 5 were performed on cannulated Sprague Dawley rats. […] Blood samples were collected at 0, 1, 2, 4, 8, 12, 24, 48, 72, and 120 hours. At each timepoint a 300 μL blood sample was added to 30 μL of a 1M citrate/0.1% Pluronic® F68 solution, pH 4.5 to lower the pH and remove coagulation factors to give plasma.
A portion of the plasma samples were precipitated by addition of 3 parts acetonitrile and centrifuged at 16000×g for 10 minutes. The samples were analyzed by HPLC for PEG-peptide conjugate and PEG-remnant concentrations. Concentrations were calculated by comparison of peak areas to a standard curve.
A portion of the releasable plasma samples was analyzed by LC/MSMS for free octreotide (MedPace).
The volume of distribution (100 mL/kg) is also in line with previous PEG conjugate, typically measured at the approximate blood volume of the rat (70 mL/kg).

[2] = subcutaneous administration; cited from earlier work
[3] = target: somatostatin receptor 5 (Homo sapiens, UniProt P35346); conditions: relative to other somatostatin analogs; cited from earlier work
somatostatin receptor 5, sequence (P35346 whole entry): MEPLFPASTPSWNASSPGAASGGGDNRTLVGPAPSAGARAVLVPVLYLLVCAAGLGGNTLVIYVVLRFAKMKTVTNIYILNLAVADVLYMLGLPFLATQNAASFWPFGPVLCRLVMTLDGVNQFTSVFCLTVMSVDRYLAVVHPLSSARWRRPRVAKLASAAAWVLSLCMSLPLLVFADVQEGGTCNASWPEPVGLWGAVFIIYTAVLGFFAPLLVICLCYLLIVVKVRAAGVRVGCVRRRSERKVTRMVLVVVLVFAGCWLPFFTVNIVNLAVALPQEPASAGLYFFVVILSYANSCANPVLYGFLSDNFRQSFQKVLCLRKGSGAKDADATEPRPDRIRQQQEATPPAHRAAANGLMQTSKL

[4] = subcutaneous administration; cited from earlier work; remark: listed apart in the source

Row | SMILES | half-life [1] [h] | average half-life of elimination from plasma [2] [h] | increased affinity to somatostatin receptor 5 than other somatostatin analogs [3] [fold] | effective half-life [4] | volume of distribution [4] [L]
1 | C[C@@H](O)[C@@H]1NC(=O)[C@H](CCCCN)NC(=O)[C@@H](Cc2c[nH]c3ccccc23)NC(=O)[C@H](Cc2ccccc2)NC(=O)[C@@H](NC(=O)[C@H](N)Cc2ccccc2)CSSCC(C(=O)N[C@H](CO)[C@@H](C)O)NC1=O (relative stereo) [Octreotide, D-phenylalanyl-L-cysteinyl-L-phenylalanyl-D-tryptophyl-L-lysyl-L-threonyl-N-[2-hydroxy-1-(hydroxymethyl)propyl]-L-Cysteinamide, cyclic (2→7)-disulfide; [R—(R*,R*)]] | 50 | 1.7 |  |  | 
2 | NCCCC[C@@H]1NC(=O)[C@@H](Cc2c[nH]c3ccccc23)NC(=O)[C@H](c2ccccc2)NC(=O)[C@@H]2C[C@@H](OC(=O)NCCN)CN2C(=O)[C@H](Cc2ccccc2)NC(=O)[C@H](Cc2ccc(OCc3ccccc3)cc2)NC1=O [Pasireotide, (2-aminoethyl) carbamic acid (2R,5,8S,11S,14R,17S,19aS)-11-(4-aminobutyl)-5-benzyl-8-(4-benzyloxybenzyl)-14-(1H-indol-3ylmethyl)-4,7,10,13,16,19-hexaoxo-17-phenyloctadecahydro-3a,6,9,12,15,18-hexaazacyclopentacyclooctadecen-2-yl ester, di[(S)-2-aminosuccinic acid] salt] (cyclo([Hyp]([CO-Ethylenediamine])[Phg][dW]KY(Bn)F)) |  |  | 40 | approximately 12 h | > 100
